Consider 89 molecules from PubChem BioAssay AID812 (SRMLSC, 2007).

Molecules are shown by their SMILES. The source made the active and inactive calls. How the calls were made is not given here. A value given as a limit tells only on which side of the number the result lay.

The test system of the experiment is Saccharomyces cerevisiae lifespan extension, no nicotinamide. The experiment is described as follows: yeast lifespan extension without nicotinamide, confirmation, yeast lifespan extension project, S. cerevisiae (AID 812).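 Further: growth read as optical density after 42 hours of incubation at 30C.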
By EC50 is commonly meant the concentration that produces a half-maximal response. `Cc1cc(C)nc(SCc2cc(=O)c(OC(=O)c3ccc(Br)o3)co2)n1`: the EC50 is > 40 µM (inactive).

Consider `COc1ccccc1CNC(=O)C(CCSC)NS(=O)(=O)c1ccc2c(c1)oc(=O)n2C` (centres undefined), for which the EC50 is > 40 µM (inactive).

For `O=S(=O)(ON(c1ccccc1)S(=O)(=O)c1ccccc1)c1ccccc1`, the EC50 is > 40 µM (inactive).

In the case of `COc1cccc(/C=C2\C(=O)N(c3cccc(C)c3)C(=O)c3ccccc32)c1`, the EC50 was > 40 µM (inactive).

Take `O=C(/C=C/c1ccccc1)C1C(=O)c2ccccc2C1=O`: the EC50 was > 40 µM (inactive).

Turning to `C=C(C(=O)c1ccccc1)C(C)CC(=O)c1ccccc1` (centres undefined), the EC50 was > 40 µM (inactive).

In the case of `CC(=O)Nc1ccc(C(=O)CSc2nnc(-c3ccc(O)cc3)n2CC2CCCO2)cc1` (centres undefined), the EC50 is > 40 µM (inactive).

For the molecule `CC(C)C(C(=O)O)N1C(=O)/C(=C/c2cccn2C)SC1=S` (centres undefined), the EC50 is > 40 µM (inactive).

In the case of `COC(=O)/C(=C/c1cn(C)c2ccccc12)[N+](=O)[O-]`, the EC50 was > 40 µM (inactive).

With `CCCCCC1CC1C(=O)N/N=C/c1ccc(N(C)C)cc1` (centres undefined), the EC50 was > 40 µM (inactive).

For the molecule `O=C(CCl)c1ccc(Cc2ncc(C(F)(F)F)cc2Cl)s1`, the EC50 was > 40 µM (inactive).

Regarding `CC1CCCCC1NC(=O)/C(C#N)=C/c1ccccc1F` (centres undefined), the EC50 is > 40 µM (inactive).

As for `c1ccc(-c2c(-c3ccccc3)n(Cc3ccco3)c3ncnc(NCCCn4ccnc4)c23)cc1`, the EC50 was > 40 µM (inactive).

In the case of `C/C(=N\NC(=O)c1cccc(Cl)c1)C1C(=O)c2ccccc2C1=O`, the EC50 was > 40 µM (inactive).

For `COCCn1c(SCC(=O)Nc2ccc(C)cc2)nc2c(oc3ccccc32)c1=O`, the EC50 was > 40 µM (inactive).

For `CCOC(=O)C1C(=O)C(C(C)=O)C(=O)CC1CC(C)SCC` (centres undefined), the EC50 was > 40 µM (inactive).

Regarding `Cc1c(NC(=O)C(=O)/C=C(/O)c2ccccc2)c(=O)n(-c2ccccc2)n1C`, the EC50 was > 40 µM (inactive).

With `COc1ccc2c(=O)c3c(=O)n(Cc4ccco4)c(-c4ccco4)nc3oc2c1`, the EC50 is > 40 µM (inactive).

For the molecule `O=S1(=O)C=C(Sc2nnc(-c3ccccc3)o2)c2ccccc21`, the EC50 is > 40 µM (inactive).

With `CCOC(=O)c1ccccc1N1C(=O)CSC1=S`, the EC50 is > 40 µM (inactive).

For `Cc1nonc1NC(=O)CSc1nc(C2CCCCC2)nc2ccccc12`, the EC50 is > 40 µM (inactive).

For the molecule `COc1ccc(C(=O)On2c(-c3ccc(Br)cc3)nc3ccccc3c2=O)cc1`, the EC50 was > 40 µM (inactive).

As to `O=C(NCc1ccco1)c1cc(C(=O)C2CCCCC2)c[nH]1`, the EC50 was > 40 µM (inactive).

In the case of `COc1ccc(OC)c(C2C(C(C)=O)=C(O)C(=O)N2Cc2cccnc2)c1` (centres undefined), the EC50 was > 40 µM (inactive).

Turning to `Cn1c(=O)c(=O)n(C)c2cc(S(=O)(=O)N3CCN(Cc4ccccc4)CC3)ccc21`, the EC50 is > 40 µM (inactive).

As to `CC(=O)c1c(O)cc2n(c1=O)-c1ccc(Cl)cc1C2(C)C`, the EC50 is > 40 µM (inactive).

As to `CN(C)C1(c2nnnn2CCOC(=O)Nc2ccc(Cl)cc2)CCCCC1`, the EC50 was > 40 µM (inactive).

Regarding `COC(=O)CC1=NN(c2ccccc2)C(=O)/C1=C\c1ccc(OC)cc1`, the EC50 is > 40 µM (inactive).

For `O=C(O)Cc1ccc(N=Cc2c(O)ccc3ccccc23)cc1`, the EC50 was > 40 µM (inactive).

On to `O=C1C(=C(O)c2ccccc2)C(=O)c2ccccc21`, for which the EC50 is > 40 µM (inactive).

`CN(C)CC(C(=O)c1ccccc1)c1ccccc1` (centres undefined): the EC50 is > 40 µM (inactive).

On to `COC(=O)c1cc(=O)n(-c2ccccc2)c(=Nc2ccccc2)s1`, for which the EC50 is > 40 µM (inactive).

As for `C=C(C(=O)c1ccccc1)C(C)C(=C)C(=O)c1ccccc1`, the EC50 is > 40 µM (inactive).

`CCCCC(=Nc1ccccc1OC)C1=C(O)CC(c2ccccc2)CC1=O` (centres undefined): the EC50 is > 40 µM (inactive).

`O=[N+]([O-])c1cc(S(=O)(=O)N2CCCCCC2)ccc1F`: the EC50 is > 40 µM (inactive).

For the molecule `COc1cc(OC)cc(-c2nc3ccccc3c(=O)n2OC(=O)c2ccc(Br)cc2)c1`, the EC50 is > 40 µM (inactive).

For `CCCc1[nH]nc2c1C(c1ccc(Br)s1)C(C#N)=C(N)O2` (centres undefined), the EC50 was > 40 µM (inactive).

Take `CCC(=O)N1CCN(CCN=CC2=C(O)CC(c3cccs3)CC2=O)CC1` (centres undefined): the EC50 is > 40 µM (inactive).

Turning to `O=C(NC(=S)Nc1nc2c(s1)CSc1ccccc1-2)c1ccccc1`, the EC50 is > 40 µM (inactive).

Take `COc1cccc(CSc2nc3ccccc3cc2C=O)c1`: the EC50 was > 40 µM (inactive).

Take `COc1c(Br)cc(Br)cc1/C=N/n1c(C)nnc1C`: the EC50 was > 40 µM (inactive).

`COc1ccc(N(C(=O)C(C)C)S(=O)(=O)c2ccc(Cl)cc2)cc1`: the EC50 was > 40 µM (inactive).

For `CCCn1c(C)cc(C(=O)COc2ncnc3sccc23)c1C`, the EC50 was > 40 µM (inactive).

As for `Cc1oc2c(c(=O)c1C)C(=O)CC(c1ccccc1)C2` (centres undefined), the EC50 was > 40 µM (inactive).

Turning to `Cc1ccc(OCC(=O)c2c(O)c3ccccc3oc2=O)cc1C`, the EC50 is > 40 µM (inactive).

For the molecule `CN1OC(c2ccccc2)=C(CO)C1c1ccccc1` (centres undefined), the EC50 was > 40 µM (inactive).

For the molecule `Cc1cc(C)nc(SCc2cc(=O)c(OC(=O)c3ccco3)co2)n1`, the EC50 is > 40 µM (inactive).

Consider `C=CCn1c(-c2ccc(OC)cc2)csc1=Nc1c(C)n(C)n(-c2ccccc2)c1=O`, for which the EC50 was > 40 µM (inactive).

`O=C1C(C2=C(O)c3ccccc3C2=O)=Nc2ccccc21`: the EC50 is > 40 µM (inactive).

With `CC(=O)Oc1c(C(=O)c2nnc(C)o2)c(=O)n(C)c2ccccc12`, the EC50 was > 40 µM (inactive).

As for `COc1ccc(C(=O)C(CN2CCOCC2)c2ccccc2)cc1` (centres undefined), the EC50 was > 40 µM (inactive).

`CN(Cc1c(O)ccc2c1oc(=O)c1ccccc12)C1CCCCC1`: the EC50 was > 40 µM (inactive).

`COc1ccc(CNC(=O)C2CCN(c3nc(OC)nc(OC)n3)CC2)cc1`: the EC50 was > 40 µM (inactive).

`Cc1ccccc1NC(=O)c1ccccc1`: the EC50 is > 40 µM (inactive).

On to `CC1(C)Cc2ccccc2-c2nnc(SCC(=O)Nc3ccc4c(c3)OCO4)n21`, for which the EC50 was > 40 µM (inactive).

Turning to `Cc1cc(C=C2C(=O)N(C)C(=S)N(C)C2=O)c(C)n1-c1cccnc1`, the EC50 was > 40 µM (inactive).

Consider `CCOc1ccc(C2=NNC(c3cccs3)=Nc3ccc(OCC)cc32)cc1`, for which the EC50 was > 40 µM (inactive).

For `CS(=O)(=O)c1nc(-c2ccco2)cc(C(F)(F)F)n1`, the EC50 is > 40 µM (inactive).

In the case of `CCOC(=O)c1cnc(-c2ccccc2)nc1Oc1ccc(Cl)cc1`, the EC50 is > 40 µM (inactive).

In the case of `O=c1c2[nH]c3ccccc3c2ncn1Cc1ccco1`, the EC50 is > 40 µM (inactive).

Take `Fc1cccc2sc(Nc3nnc(-c4ccco4)o3)nc12`: the EC50 is > 40 µM (inactive).

For the molecule `CS(=O)(=O)c1nc(-c2ccccc2)cc(C(F)(F)F)n1`, the EC50 is > 40 µM (inactive).

Turning to `CCCCOC(=O)CSc1nc2c(c(=O)[nH]c(=O)n2C)n1C/C=C(\C)Cl`, the EC50 was > 40 µM (inactive).

As to `CC(C)(C)C(=O)Cn1c(=N)n(Cc2ccccc2)c2ccccc21`, the EC50 is > 40 µM (inactive).

Consider `CCCCC(=O)Nc1ccc(C(=O)NNC(=S)NC(=O)c2cccs2)cc1`, for which the EC50 was > 40 µM (inactive).

Consider `CCOC(=O)C1CCN(C(c2cc3ccc(C)c(C)c3[nH]c2=O)c2nnnn2C2CCCCC2)CC1` (centres undefined), for which the EC50 was > 40 µM (inactive).

In the case of `COc1ccc(NC(=O)/C(Cl)=C(/Cl)S(=O)Cc2ccc(C)cc2)cn1` (centres undefined), the EC50 was > 40 µM (inactive).

For `C=CS(=O)(=O)c1ccc(Oc2ccc(S(=O)(=O)C=C)cc2)cc1`, the EC50 was > 40 µM (inactive).

As for `CC(=O)Oc1oc(-c2ccccc2)nc1C=Nc1ccccc1`, the EC50 is > 40 µM (inactive).

Consider `CCc1cc2c(=O)c(Oc3ccccc3)c(C)oc2cc1O`, for which the EC50 is > 40 µM (inactive).

Regarding `Cn1c(SCC(=O)N2CCCc3ccccc32)nnc1-c1c[nH]c2ccccc12`, the EC50 is > 40 µM (inactive).

On to `COC(=O)C1=C(N)OC2=C(C(=O)CC(C)(C)C2)C1c1cccs1` (centres undefined), for which the EC50 is > 40 µM (inactive).

Regarding `C[C@]12CC[C@@H](O)C[C@@H]1CC[C@@H]1[C@@H]2CC[C@]2(C)[C@@H](O)CC[C@@H]12`, the EC50 is > 40 µM (inactive).

As to `Cc1[nH]nc2nc3c(c(OC(=O)c4ccccc4)c12)c(=O)n(C)c(=O)n3C`, the EC50 was > 40 µM (inactive).

Take `Cc1ccc(S(=O)(=O)Nc2ccccc2/C=N/c2nc3ccccc3n2C(C)C)cc1`: the EC50 is > 40 µM (inactive).

As to `Cn1nnnc1SCCNCC#Cc1ccccc1`, the EC50 was > 40 µM (inactive).

For the molecule `CC1(C)Oc2ccccc2OC1(O)c1ccc2ccccc2n1` (centres undefined), the EC50 is > 40 µM (inactive).

Consider `CN(C)C=C1C(=O)N(C2CCCCC2)C(=O)N(C2CCCCC2)C1=O`, for which the EC50 is > 40 µM (inactive).

`CCC(=NCCc1c(C)[nH]c2ccc(C)cc12)C1=C(O)CC(c2ccccc2)CC1=O` (centres undefined): the EC50 was > 40 µM (inactive).

In the case of `O=c1c2ccccc2nc(-c2ccc(Cl)c(Cl)c2)n1O`, the EC50 was > 40 µM (inactive).

Take `CCCCCSc1nc2c(c(=O)[nH]c(=O)n2C)n1C`: the EC50 is > 40 µM (inactive).

Take `O=C(CCc1ccccc1)NCCCN1CCOCC1`: the EC50 is > 40 µM (inactive).

In the case of `O=CN(/C=C1\Sc2ccccc2C1=O)Cc1ccccc1`, the EC50 is > 40 µM (inactive).

For the molecule `Cc1nc2ccccc2n1-c1ccccc1`, the EC50 was > 40 µM (inactive).

Regarding `CCNCCNC(=O)c1c(O)c2cccc3c2n(c1=O)CCC3`, the EC50 was > 40 µM (inactive).

In the case of `CCCCC(CC)Cn1c2nc3ccccc3nc2c2c(=N)oc(C)nc21` (centres undefined), the EC50 is > 40 µM (inactive).

Consider `Cc1ccsc1C(=O)Nc1nnc(-c2ccco2)o1`, for which the EC50 was > 40 µM (inactive).

As for `COc1ccc(/C=C/C(=O)C2C(=O)C=C(C)OC2=O)cc1O` (centres undefined), the EC50 is > 40 µM (inactive).

Regarding `COc1cccc(/C=C/C(=O)c2c(O)cc(C)oc2=O)c1O`, the EC50 is > 40 µM (inactive).
